According to patent US20250170132A1, “SALTS AND POLYMORPHIC FORMS OF MENIN INHIBITORS AND PHARMACEUTICAL COMPOSITIONS THEREOF” (Syndax Pharmaceuticals, Inc., priority 2023, published 2025):
Where two headings read alike, the source gives them in different places.

Assays:
menin = target: T1, menin (Homo sapiens, UniProt O00255); assay: Binding to the MLL1 binding pocket on menin
T1 sequence (O00255 1-610): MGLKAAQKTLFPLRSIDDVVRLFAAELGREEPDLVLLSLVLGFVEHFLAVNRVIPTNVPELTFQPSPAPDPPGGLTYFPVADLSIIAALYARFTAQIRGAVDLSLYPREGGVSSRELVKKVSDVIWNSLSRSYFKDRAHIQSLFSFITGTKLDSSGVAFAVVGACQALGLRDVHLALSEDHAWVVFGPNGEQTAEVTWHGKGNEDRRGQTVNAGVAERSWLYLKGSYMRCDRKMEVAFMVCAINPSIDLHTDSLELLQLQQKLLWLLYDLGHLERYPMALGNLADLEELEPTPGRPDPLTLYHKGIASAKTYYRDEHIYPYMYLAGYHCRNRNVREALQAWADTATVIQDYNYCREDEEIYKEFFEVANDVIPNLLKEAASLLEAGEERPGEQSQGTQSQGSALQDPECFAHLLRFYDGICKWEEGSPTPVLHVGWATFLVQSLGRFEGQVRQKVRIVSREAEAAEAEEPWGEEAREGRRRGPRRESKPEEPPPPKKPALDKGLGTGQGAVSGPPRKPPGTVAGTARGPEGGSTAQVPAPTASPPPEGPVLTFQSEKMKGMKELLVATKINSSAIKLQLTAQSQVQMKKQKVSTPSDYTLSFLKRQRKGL
Description: (§1) Menin inhibitor (e.g., Compound A or a pharmaceutically acceptable salt thereof) disrupts the interaction between menin and the MLL1 fusion proteins which is required for leukemogenic activity, thus impairing expression of critical oncogenes, causing growth arrest and the inhibition of cellular proliferation. Small molecule inhibitors of the menin-MLL interaction have been reported.

[1] = system: cells harboring MLLr fusions; assay: Activity in cells harboring MLLr fusions; assay type: cell-based
Description: as §1

[2] = Excipient compatibility study with Compound A monocitrate monohydrate; assay type: physicochemical
Experimental: The list of excipients for this study was restricted to those already being used in the tablet formulation provided in Example 7. OpaDry Orange was further added.
Binary mixtures of Compound A monocitrate monohydrate and each excipient, were placed in closed 20 mL borosilicate glass vials (Tables 45-47). The vials were stored at 25° C./60% RH, 30° C./65% RH, and 40° C./75% RH over 8 weeks and later analyzed using methods for Appearance, Compound A Assay, Related Substances, XRPD, and Differential Scanning calorimetry (DSC).

[3] = Pharmacokinetics in patients with relapsed or refractory acute leukemia; assay type: in vivo, human; settings: for Tmax: read-out: Tmax Median; for AUC(0-t): read-out: AUC0-12 h
Description: The pharmacokinetics of Compound A were characterized in patients with relapsed or refractory acute leukemia following single and multiple oral administration of Compound A with or without strong CYP3A4 inhibitors. Steady-state pharmacokinetic parameters are presented as geometric mean [geometric coefficient of variation (% CV)] unless otherwise specified.

CYP3A4 = target: T2, CYP3A4 (Homo sapiens, UniProt P08684); assay: Drug interaction studies (clinical studies); assay type: in vivo; settings: for AUC increase / Cmax increase: multiple doses
T2 construct: from tissue
T2 sequence (P08684 whole entry): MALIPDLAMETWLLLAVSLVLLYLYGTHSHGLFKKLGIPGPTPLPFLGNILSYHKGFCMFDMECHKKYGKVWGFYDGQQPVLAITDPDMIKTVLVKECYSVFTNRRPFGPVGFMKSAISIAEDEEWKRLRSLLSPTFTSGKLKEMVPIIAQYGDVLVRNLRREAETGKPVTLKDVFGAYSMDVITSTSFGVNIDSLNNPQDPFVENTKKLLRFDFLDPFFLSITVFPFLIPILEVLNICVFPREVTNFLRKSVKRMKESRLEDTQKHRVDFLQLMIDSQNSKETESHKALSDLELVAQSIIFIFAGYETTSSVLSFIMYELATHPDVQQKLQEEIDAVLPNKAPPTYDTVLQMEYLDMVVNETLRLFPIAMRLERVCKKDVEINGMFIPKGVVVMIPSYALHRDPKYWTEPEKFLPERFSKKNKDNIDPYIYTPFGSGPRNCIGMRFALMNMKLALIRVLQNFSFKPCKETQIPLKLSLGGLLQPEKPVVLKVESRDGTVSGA
Description: Strong CYP3A4 Inhibitors: Compound A AUC and Cmax is increased by 2-fold following concomitant use of multiple doses of Compound A with certain azole antifungals that are strong CYP3A4 inhibitors (i.e., posaconazole, itraconazole, and voriconazole).

[4] = Aqueous solubility of Compound A salts; assay type: physicochemical; settings: across the physiological pH range
Experimental: Solubility of Compound A citrate was determined in 3 different types of matrices: unbuffered water, citrate-buffered solutions from pH 3 to 6, and formulations consisting of citrate, advantame, methylparaben sodium, potassium sorbate, and sodium chloride at pH ranging from 3 to 6. Solubility in unbuffered water at ambient temperature was 38.5 mg/mL.
The target pH was reassessed when the F3 formulation was developed. Compound A citrate solubility studies were performed initially in simple buffered solutions to assess solubility trends as a function of pH. […] The target concentration of Compound A was therefore changed to 40 mg/mL as a compromise between drug substance and preservatives dissolution rate and stability.

[5] = Polymorph screening of Compound A citrate salt, form conversion (XRPD, DSC/TGA, DVS); assay type: physicochemical; settings: drying of wet cake (Form B); presence of water (Form C)
[6] = Slurry and solvent evaporation polymorph experiments of Compound A citrate salt (Table 9); assay type: physicochemical; settings: upon drying
Experimental: Based on the approximate solubility data of Compound A citrate salt, 18 polymorph experiments were started at RT with stirring (Table 9). Wet cakes from the slurry experiments were analyzed after 5 days of stirring. Wet cake XRPD patterns were checked and materials showing no pattern change were heated from RT to 50° C.
Procedure • 1) Slurry at RT: ˜35 mg citrate salt was slurried in different solvents in 4 mL vials using a magnetic stirrer at RT. The solids in slurry were characterized by XRPD after 3-5 days. • 2) Slurry at 50° C.: Slurries with no change in wet cake XRPD pattern when compared to starting material were heated from RT to 50° C. Samples were analyzed after 2-3 days of stirring.
Wet cake samples were isolated and kept at 25° C. for 2 h for drying. After drying, samples were analyzed by XRPD.

[7] = Single crystal structure, solvate exchange under ambient conditions; assay type: physicochemical; settings: after exposure to ambient conditions, analyzed at 273 K
Experimental: Plate-like crystals (FIG. 9) were grown by recrystallization from methanol of Compound A monocitrate monomethanolate by evaporation (prepared from methanol/water 90:10 v/v).

[8] = Form C characterization and relative stability of the forms; assay type: physicochemical; settings: ambient conditions
Description: Moreover, HNMR studies validated a 1:1 stoichiometry between the freebase and acid.

[9] = system: NPM1c mutant AML patient-derived xenograft models; settings: orally active menin inhibitor; cited from earlier work
NPM1c cells = settings: cited from earlier work
[10] = 2 pediatric patients, 160 mg/m^2 without strong CYP3A4 inhibitors
[11] = human, plasma, oral, 163 mg twice daily with strong CYP3A4 inhibitors, steady-state, geometric mean
[12] = human, plasma, oral, 276 mg twice daily without strong CYP3A4 inhibitors, steady-state, geometric mean
[13] = low fat meal, approximately 400-500 calories, 25% of calories from fat
[14] = single dose of radiolabeled Compound A 276 mg, adult patients
[15] = with cobicistat (strong CYP3A4 inhibitor)
[16] = with strong CYP3A4 inhibitor azole antifungals (posaconazole, itraconazole, voriconazole)

## CCN(C(=O)c1cc(F)ccc1Oc1cncnc1N1CC2(CCN(C[C@H]3CC[C@H](NS(=O)(=O)CC)CC3)CC2)C1)C(C)C [Compound A, trans N-ethyl-2-((4-(7-((4-(ethylsulfonamido)cyclohexyl)methyl)-2,7-diazaspiro[3.5]nonan-2-yl)pyrimidin-5-yl)oxy)-5-fluoro-N-isopropylbenzamide]
menin
  binding affinity to the MLL1 binding pocket on menin: high affinity
[1]
  activity in cells harboring MLLr fusions: displays activity across a range of cells harboring MLLr fusions
[2]; 8 week, 25° C./60% RH closed
  Assay (%) Results: 100.3%
[2]; 8 week, 30° C./65% RH closed
  Assay (%) Results: 101.4%
[2]; 8 week, 40° C./75% RH closed
  Assay (%) Results: 100.0%
[2]; Initial (t = 0), closed glass vials
  Assay (%) Results: 98.8%
[3]; 163 mg twice daily with strong CYP3A4 inhibitors, steady-state, geometric mean
  Apparent Clearance: 7 L/h
[3]; 276 mg twice daily without strong CYP3A4 inhibitors, steady-state, geometric mean
  Apparent Clearance: 27 L/h
[3]; [10]
  AUC0-tau, individual patients: 16300 ng·h/mL
  steady-state Cmax, individual patients: 4790 ng/mL
[3]; dosage range of 113 mg to 339 mg
  Dose Proportionality: Dose proportional increases in Cmax and AUC0-12 h
[3]; higher exposures with lower body weight and BSA
  Effect of body weight and BSA on pharmacokinetics: significant effect
[3]; human, in vivo
  Metabolism: Primary Pathway: CYP3A4
[3]; human, in vivo, independent of concentration, read-out: Protein Binding (converted)
  fraction unbound: 0.1
[3]; human, plasma, oral, 95 mg/m2, pediatric patients, 95 mg/m^2 with strong CYP3A4 inhibitors, read-out: steady-state AUC0-tau, geometric mean (geometric CV %)
  AUC: 14600 ng·h/mL
[3]; human, plasma, oral, 95 mg/m2, pediatric patients, 95 mg/m^2 with strong CYP3A4 inhibitors, read-out: steady-state Cmax, geometric mean (geometric CV %)
  Cmax: 3140 ng/mL
[3]; human, plasma, oral, 160 mg/m2, 2 pediatric patients, 160 mg/m^2 without strong CYP3A4 inhibitors, read-out: AUC0-tau, individual patients
  AUC: 25600 ng·h/mL
[3]; human, plasma, oral, 160 mg/m2, 2 pediatric patients, 160 mg/m^2 without strong CYP3A4 inhibitors, read-out: steady-state Cmax, individual patients
  Cmax: 4950 ng/mL
[3]; human, plasma, oral, 163 mg, 163 mg twice daily with strong CYP3A4 inhibitors, steady-state, geometric mean, patients, read-out: Cmax
  Cmax: 3220 ng/mL
[3]; human, plasma, oral, 276 mg, 276 mg twice daily without strong CYP3A4 inhibitors, steady-state, geometric mean, patients, read-out: Cmax
  Cmax: 2050 ng/mL
[3]; human, plasma, oral, 163 mg twice daily with strong CYP3A4 inhibitors
  Tmax: 2 h
[3]; [11]
  half-life: 7.5 h
  AUC(0-t): 22600 ng·h/mL
[3]; human, plasma, oral, 276 mg twice daily without strong CYP3A4 inhibitors
  Tmax: 1 h
[3]; [12]
  half-life: 3.6 h
  AUC(0-t): 10200 ng·h/mL
[3]; human, plasma, oral, steady-state, geometric mean (% CV), read-out: Apparent Volume of Distribution
  Vd: 78 L
[3]; [13]
  AUC decrease with low fat meal: 12%
  Cmax decrease with low fat meal: 27%
[3]; [14]
  Excretion in Feces: ~49%
  Excretion in Feces, unchanged: 7%
  Excretion in Urine: ~27%
  Excretion in Urine, unchanged: 7%
[3]; steady-state
  Accumulation: 2-fold
[3]; twice daily oral dosing, patients
  Time to Steady-State: 2 to 3 days
CYP3A4; [15]
  AUC increase: 2.5 fold
  Cmax increase: 2.5 fold
CYP3A4; with fluconazole (moderate CYP3A4 inhibitor)
  Differences in pharmacokinetics: No clinically significant differences
CYP3A4; with isavuconazole (moderate CYP3A4 inhibitor)
  Differences in pharmacokinetics: No clinically significant differences
CYP3A4; [16]
  AUC increase: 2 fold
  Cmax increase: 2 fold
[4]
  solubility: high solubility

## CCN(C(=O)c1cc(F)ccc1Oc1cncnc1N1CC2(CCN(C[C@H]3CC[C@H](NS(=O)(=O)CC)CC3)CC2)C1)C(C)C.CO.O=C(O)CC(O)(CC(=O)O)C(=O)O [Form B]
[5]
  stability of polymorphic form / conversion: unstable form and converts to Form A upon drying
[6]
  Form conversion: converts to Form A upon drying
[7]
  Solvate exchange of single crystal: transformed into a monohydrate
[8]
  Form conversion: transitions to Form A

## CNc1nc(NC2CCN(Cc3ccc4c(cc(C#N)n4C[C@H](C)N4CCN(S(C)(=O)=O)CC4)c3C)CC2)c2cc(CC(F)(F)F)sc2n1 [KO-539]
[9]
  anti-leukemic activity: robust anti-leukemic activity

## Cc1c(CN2CCC(Nc3ncnc4sc(CC(F)(F)F)cc34)CC2)ccc2c1cc(C#N)n2Cc1cn[nH]c1 [MI-503]
NPM1c cells
  effect on HOXA/MEIS1 transcription program in NPM1c cells: suppress the HOXA/MEIS1 transcription program in NPM1c cells, leading to growth arrest, terminal differentiation and cell death
